Source: the supplement of paper PMC10307832

Columns and labels:
Experiment in all cases: relative viability (nuclei count vs DMSO), 5 days (fraction); higher = more cells survive
[1] = compound: CN(c1ncccc1CNc1nc(Nc2ccc3c(c2)CC(=O)N3)ncc1C(F)(F)F)S(C)(=O)=O + C[C@@H](Oc1cc(-c2cnn(C3CCNCC3)c2)cnc1N)c1c(Cl)ccc(F)c1Cl [Crizotinib] (partner 1 µM)
Outline: (§1)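 Lung cancer cell lines were pin-tool dosed in 1536-well plates on the day after seeding, with either a lone drug or a fixed anchor-drug dose plus five library-drug doses (not always all listed) in √10 steps. Nuclei were counted on 4× images after 5 days. Relative viability is the ratio of treated-well to vehicle-well nuclei counts, with each value a median of duplicate plates.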

[2] = compound: CN(c1ncccc1CNc1nc(Nc2ccc3c(c2)CC(=O)N3)ncc1C(F)(F)F)S(C)(=O)=O + O=C(CCCCCCC(=O)Nc1ccccc1)NO [Vorinostat] (partner 1 µM)
Outline: as §1

[3] = compound: CN(c1ncccc1CNc1nc(Nc2ccc3c(c2)CC(=O)N3)ncc1C(F)(F)F)S(C)(=O)=O + CC1(C)CCC(c2ccc(Cl)cc2)=C(CN2CCN(c3ccc(C(=O)NS(=O)(=O)c4ccc(N[C@H](CCN5CCOCC5)CSc5ccccc5)c(S(=O)(=O)C(F)(F)F)c4)cc3)CC2)C1 [Navitoclax] (partner 0.5 µM)
Outline: as §1

[4] = compound: CN(c1ncccc1CNc1nc(Nc2ccc3c(c2)CC(=O)N3)ncc1C(F)(F)F)S(C)(=O)=O + Cc1nc(Nc2ncc(C(=O)Nc3c(C)cccc3Cl)s2)cc(N2CCN(CCO)CC2)n1 [Dasatinib] (partner 0.075 µM)
Outline: as §1

Row | Cell Line | relative viability ([1]; first compound 0.01 µM) | relative viability ([1]; first compound 0.03162 µM) | relative viability ([1]; first compound 0.1 µM) | relative viability ([1]; first compound 0.3162 µM) | relative viability ([1]; first compound 1 µM) | relative viability ([2]; first compound 0.01 µM) | relative viability ([2]; first compound 0.03162 µM) | relative viability ([2]; first compound 0.1 µM) | relative viability ([2]; first compound 0.3162 µM) | relative viability ([2]; first compound 1 µM) | relative viability ([3]; first compound 0.01 µM) | relative viability ([3]; first compound 0.03162 µM) | relative viability ([3]; first compound 0.1 µM) | relative viability ([3]; first compound 0.3162 µM) | relative viability ([3]; first compound 1 µM) | relative viability ([4]; first compound 0.01 µM) | relative viability ([4]; first compound 0.03162 µM) | relative viability ([4]; first compound 0.1 µM) | relative viability ([4]; first compound 0.3162 µM) | relative viability ([4]; first compound 1 µM)
1 | H3255 | 0.945 | 1.03 | 0.832 | 0.663 | 0.839 | 0.881 | 0.931 | 0.767 | 0.796 | 0.743 | 0.606 | 0.518 | 0.616 | 0.475 | 0.35 | 0.368 | 0.347 | 0.356 | 0.385 | 0.378
2 | EPLC-272H | 0.912 | 0.873 | 0.888 | 0.968 | 0.93 | 0.546 | 0.23 | 0.408 | 0.564 | 0.263 | 1.28 | 1.08 | 1.16 | 1.35 | 0.97 | 0.338 | 0.27 | 0.218 | 0.209 | 0.135
3 | PC-3 [JPC-3] | 0.968 | 0.992 | 1.02 | 0.927 | 0.841 | 0.826 |  | 0.775 | 0.795 | 0.753 | 0.821 | 0.863 | 0.823 | 0.833 | 0.787 | 0.988 | 0.949 | 0.892 | 0.911 | 0.953
4 | NCI-H1793 |  |  |  |  |  | 0.866 | 0.724 | 0.785 | 0.699 | 0.713 | 0.407 | 0.562 | 0.498 | 0.377 | 0.303 | 0.375 | 0.336 | 0.409 | 0.311 | 0.353
5 | EKVX | 0.895 | 0.828 | 0.98 | 0.801 | 0.789 | 0.638 | 0.746 | 0.638 | 0.627 | 0.494 | 0.974 | 1.02 | 0.944 | 0.852 | 0.81 | 0.464 | 0.425 | 0.447 | 0.411 | 0.347
6 | ChaGo-K-1 | 1.1 | 1.21 | 1.08 |  | 1.05 | 0.756 | 0.708 | 0.778 | 0.816 | 0.738 | 1.04 | 0.819 | 1.11 |  | 1.08 | 0.656 | 0.531 | 0.52 | 0.614 | 0.531
7 | NCI-H23 | 0.444 | 0.483 | 0.456 | 0.59 | 0.457 | 0.659 | 0.594 | 0.633 | 0.714 | 0.662 | 0.867 | 1.04 | 1.08 | 0.969 | 0.837 | 0.78 | 0.697 | 0.882 | 0.835 | 0.719
8 | EMC-BAC-2 | 0.798 | 0.817 | 0.717 | 0.78 | 0.778 | 0.46 | 0.229 | 0.446 | 0.44 | 0.443 | 1.18 | 1.24 | 1.05 | 1.16 | 1.2 | 0.247 | 0.308 | 0.279 | 0.295 | 0.271
9 | LOU-NH91 | 0.78 | 0.751 | 0.727 | 0.692 | 0.763 | 0.957 | 0.99 | 0.852 | 0.907 | 0.976 | 0.695 | 0.751 | 0.772 | 0.762 | 0.793 | 0.56 | 0.526 | 0.491 | 0.501 | 0.448
10 | LU99A | 0.594 | 0.584 | 0.584 | 0.758 | 0.633 | 0.531 | 0.526 | 0.571 | 0.635 | 0.531 | 0.737 | 0.955 | 0.824 | 0.91 | 0.788 | 0.63 | 0.529 | 0.378 | 0.254 | 0.267
11 | NCI-H1395 |  |  |  |  |  | 0.792 | 0.698 | 0.725 | 0.659 | 0.898 | 1.19 | 1.25 | 1.04 | 1.06 | 1.31 | 0.461 | 0.374 | 0.359 | 0.414 | 0.386
12 | NCI-H460 | 1.1 | 1.15 | 0.994 | 0.891 | 0.712 | 0.696 | 0.757 | 0.615 | 0.76 | 0.736 | 1.18 | 1.46 | 1.13 | 1.19 | 1.11 | 0.62 | 0.505 | 0.462 | 0.456 | 0.436
13 | 201T | 1.05 | 0.991 | 1.02 | 0.975 | 1 | 0.971 | 0.98 | 0.915 | 0.9 | 0.923 | 1.21 | 1.26 | 1.18 | 1.16 | 1.15 | 0.602 | 0.55 | 0.45 | 0.538 | 0.517
14 | NCI-H1944 | 0.998 | 1.11 | 1.08 | 1.08 | 1.06 | 0.587 | 0.508 | 0.586 | 0.585 | 0.534 | 0.984 | 1.06 | 1.11 | 1 | 1.11 | 0.232 | 0.231 | 0.202 | 0.252 | 0.276
15 | NCI-H2405 | 0.865 | 0.835 | 0.801 | 0.813 | 0.744 | 0.961 | 0.724 | 0.971 | 0.761 | 0.868 | 0.802 | 0.993 | 0.66 | 0.705 | 0.679 | 0.229 | 0.197 | 0.184 | 0.22 | 0.218
16 | NCI-H1703 | 0.586 | 0.678 | 1.15 | 0.986 | 0.417 |  |  |  |  |  | 0.951 | 1.12 | 1.03 | 1.11 | 1.02 |  |  |  |  | 
17 | NCI-H1755 | 0.873 | 0.94 | 0.889 | 0.781 | 0.777 | 0.79 | 0.756 | 0.787 | 0.75 | 0.66 | 1.01 | 1.03 | 0.972 | 0.94 | 0.875 | 0.414 | 0.412 | 0.329 | 0.365 | 0.325
